Measurements reported in publication PMC6009933, “Discovery of novel dual inhibitors of receptor tyrosine kinases EGFR and IGF-1R” (Journal of Enzyme Inhibition and Medicinal Chemistry, 2017).

Assays:
EGFR = biological target: T1, EGFR (Homo sapiens, UniProt P00533); test: Receptor tyrosine kinase inhibition, 33P-ATP FlashPlate assay (EGFR); assay type: biochemical; conditions: recombinant GST fusion kinase, substrate Poly(Glu,Tyr)4:1, Ki from IC50, Km ATP 1.3 µM
T1 construct: GST; made in house; host or cells: Sf9 insect cells (baculovirus)
Description: (§1) The protein kinases were expressed by means of the baculovirus expression system in Sf9 insect cells as human recombinant GST fusion proteins and purified by affinity chromatography using GSH-agarose. The kinase identity was confirmed by mass spectrometry using LC-ESI-MS/MS technique.
(§2) The measuring of protein kinase activity was performed in 96-well FlashPlates^TM from Perkin Elmer in a 50 µL reaction volume. The reaction mixture consisted of 20 µL of assay buffer solution, 5 µL of ATP solution in water, 5 µL of used test compound in a 10% DMSO solution and finally a premixture of each 10 µL of used substrate and enzyme solutions. The assay buffer solution contained 70 mM of HEPES-NAOH pH 7.5, each 3 mM of magnesium chloride and manganese(II) chloride, 3 µM of sodium orthovanadate, 1.2 mM of DTT, 50 µg/mL of PEG20000 and finally 15 µM of [γ-^33P]-ATP making approximately 7 × 10^5 cpm per well.
(§3) The final kinase concentration has been 10 ng/50 µL for EGFR and IGF-1R. The used substrate was Poly(Glu,Tyr)4:1 in a concentration of 125 ng/50 µL.
(§4) The reaction mixtures were incubated at 30 °C for 60 min. The reaction was stopped with 50 µL of a 2% (v/v) solution of phosphoric acid. Then, the plates were aspirated and washed twice with 200 µL of water or 0.9% solution of sodium chloride. The incorporation of ^33Pi was determined with a microplate scintillation counter. Ten different inhibitor concentrations were measured in a range of 3 nM to 100 µM. The residual activity (%) and the IC50 values were finally calculated. From the IC50 values, the affinity constants Ki were determined using the equation: IC50 = 1/2 [Etotal] + Ki× (1 + [S]/Km) following a competitive inhibitor binding mode[18]. The used Km values for ATP have been measured with 1.3 µM for EGFR and with 2.52 µM for IGF-1R (Table 1).

IGF-1R [1] = biological target: T2, IGF-1R (Homo sapiens, UniProt P08069); test: Receptor tyrosine kinase inhibition, 33P-ATP FlashPlate assay (IGF-1R); assay type: biochemical; conditions: for Ki: recombinant GST fusion kinase, substrate Poly(Glu,Tyr)4:1, Ki from IC50, Km ATP 2.52 µM
T2 construct: GST; made in house; host or cells: Sf9 insect cells (baculovirus)
Description: as §1, §2, §3, §4

IGF-1R [2] = system: IGF-1R; set-up: method as in PMID 23639757; conditions: cited from earlier work

T2 sequence (P08069 31-1367): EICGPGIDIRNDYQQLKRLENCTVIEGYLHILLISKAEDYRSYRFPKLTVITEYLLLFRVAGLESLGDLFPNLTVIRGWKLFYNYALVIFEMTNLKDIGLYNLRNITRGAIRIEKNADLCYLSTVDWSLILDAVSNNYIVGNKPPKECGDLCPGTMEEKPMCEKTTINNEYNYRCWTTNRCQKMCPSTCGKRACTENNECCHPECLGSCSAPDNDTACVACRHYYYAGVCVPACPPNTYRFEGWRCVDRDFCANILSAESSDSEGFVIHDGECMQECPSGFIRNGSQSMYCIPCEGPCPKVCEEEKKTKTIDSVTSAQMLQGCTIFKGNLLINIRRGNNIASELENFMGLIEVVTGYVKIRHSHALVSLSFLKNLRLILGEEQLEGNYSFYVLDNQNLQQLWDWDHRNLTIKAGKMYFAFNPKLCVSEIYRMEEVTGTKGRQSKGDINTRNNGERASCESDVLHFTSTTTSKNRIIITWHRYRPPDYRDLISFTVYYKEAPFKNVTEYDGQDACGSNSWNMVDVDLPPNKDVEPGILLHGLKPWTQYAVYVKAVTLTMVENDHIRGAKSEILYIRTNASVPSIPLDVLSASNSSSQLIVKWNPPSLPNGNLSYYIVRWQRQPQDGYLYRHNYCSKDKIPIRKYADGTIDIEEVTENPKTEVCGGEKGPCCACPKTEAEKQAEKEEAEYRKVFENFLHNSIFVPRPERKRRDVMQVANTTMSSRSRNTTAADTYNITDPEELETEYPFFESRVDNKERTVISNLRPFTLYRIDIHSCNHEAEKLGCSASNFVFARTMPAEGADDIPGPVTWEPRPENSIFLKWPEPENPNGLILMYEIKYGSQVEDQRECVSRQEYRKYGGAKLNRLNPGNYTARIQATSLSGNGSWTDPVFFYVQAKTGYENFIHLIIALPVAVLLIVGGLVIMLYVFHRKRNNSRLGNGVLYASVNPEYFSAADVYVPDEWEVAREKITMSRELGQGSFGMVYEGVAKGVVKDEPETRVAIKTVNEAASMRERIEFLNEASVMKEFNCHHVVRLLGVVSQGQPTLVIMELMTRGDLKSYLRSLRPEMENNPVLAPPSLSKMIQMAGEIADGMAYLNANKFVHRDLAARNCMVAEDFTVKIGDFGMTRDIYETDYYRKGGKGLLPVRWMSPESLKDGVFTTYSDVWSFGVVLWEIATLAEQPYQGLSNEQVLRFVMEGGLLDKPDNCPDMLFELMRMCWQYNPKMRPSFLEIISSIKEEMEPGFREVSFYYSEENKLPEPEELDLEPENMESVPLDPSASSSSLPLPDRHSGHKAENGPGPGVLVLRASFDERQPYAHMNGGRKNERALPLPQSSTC
T1 sequence (P00533 25-1210): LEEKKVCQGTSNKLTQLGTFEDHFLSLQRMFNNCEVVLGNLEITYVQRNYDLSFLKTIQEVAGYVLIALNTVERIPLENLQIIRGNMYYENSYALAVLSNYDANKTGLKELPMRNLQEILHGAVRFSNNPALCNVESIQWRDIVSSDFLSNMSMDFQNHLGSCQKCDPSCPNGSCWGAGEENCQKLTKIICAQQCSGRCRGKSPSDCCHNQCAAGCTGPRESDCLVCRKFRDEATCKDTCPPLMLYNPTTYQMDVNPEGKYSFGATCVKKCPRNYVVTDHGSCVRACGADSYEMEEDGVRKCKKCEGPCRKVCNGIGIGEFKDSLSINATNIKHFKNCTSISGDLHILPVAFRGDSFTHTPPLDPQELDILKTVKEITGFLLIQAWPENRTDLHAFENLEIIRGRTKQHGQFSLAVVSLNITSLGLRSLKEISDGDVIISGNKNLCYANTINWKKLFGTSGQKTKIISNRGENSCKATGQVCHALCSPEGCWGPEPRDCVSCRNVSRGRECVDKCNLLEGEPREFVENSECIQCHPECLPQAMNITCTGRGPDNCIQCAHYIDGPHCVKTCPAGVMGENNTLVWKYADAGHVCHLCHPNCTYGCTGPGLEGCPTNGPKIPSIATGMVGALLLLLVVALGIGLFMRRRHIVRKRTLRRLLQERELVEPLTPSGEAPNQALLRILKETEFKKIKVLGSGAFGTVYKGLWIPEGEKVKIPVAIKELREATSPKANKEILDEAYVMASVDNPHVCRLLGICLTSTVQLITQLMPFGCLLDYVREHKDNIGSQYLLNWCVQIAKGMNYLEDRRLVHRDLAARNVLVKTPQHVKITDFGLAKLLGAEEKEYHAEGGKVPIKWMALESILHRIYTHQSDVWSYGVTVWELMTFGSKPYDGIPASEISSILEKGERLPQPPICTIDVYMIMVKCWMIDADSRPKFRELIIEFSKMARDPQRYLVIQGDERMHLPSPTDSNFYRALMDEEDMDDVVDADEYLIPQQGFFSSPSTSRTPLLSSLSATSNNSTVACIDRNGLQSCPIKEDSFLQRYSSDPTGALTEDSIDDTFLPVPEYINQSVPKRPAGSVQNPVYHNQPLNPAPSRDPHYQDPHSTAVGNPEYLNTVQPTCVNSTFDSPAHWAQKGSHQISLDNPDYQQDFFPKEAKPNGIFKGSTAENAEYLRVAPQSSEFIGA

Compound | Ki (EGFR) [nM] | Ki (IGF-1R [1]) [nM] | further results
COc1cccc(CNc2ccnc3[nH]c4ccc(Br)cc4c23)c1 [Compound 5a, N^4–(3-Methoxybenzyl)-6-bromo-9H-pyrido[2,3-b]indole-4-amine] | 344 ± 24 | 9840 ± 238 | 
Clc1cccc(CNc2ccnc3[nH]c4ccc(Br)cc4c23)c1 [Compound 5b, N^4–(3-Chlorobenzyl)-6-bromo-9H-pyrido[2,3-b]indole-4-amine] | 361 ± 35 | 3470 ± 71 | 
Brc1cccc(CNc2ccnc3[nH]c4ccc(Br)cc4c23)c1 [Compound 5c, N^4–(3-Bromobenzyl)-6-bromo-9H-pyrido[2,3-b]indole-4-amine] | 255 ± 18 | 2960 ± 37 | 
Nc1cccc(CNc2ccnc3[nH]c4ccc(Br)cc4c23)c1 [Compound 5d, N^4–(3-Aminobenzyl)-6-bromo-9H-pyrido[2,3-b]indole-4-amine] | 101 ± 11 | 537 ± 22 | 
COc1ccc(CNc2ccnc3[nH]c4ccc(Br)cc4c23)cc1 [Compound 5e, N^4–(4-Methoxybenzyl)-6-bromo-9H-pyrido[2,3-b]indole-4-amine] | 1170 ± 57 | 2230 ± 22 | 
Clc1ccc(CNc2ccnc3[nH]c4ccc(Br)cc4c23)cc1 [Compound 5f, N^4–(4-Chlorobenzyl)-6-bromo-9H-pyrido[2,3-b]indole-4-amine] |  | 2290 ± 43 | Ki values EGFR (EGFR): lost
Brc1ccc(CNc2ccnc3[nH]c4ccc(Br)cc4c23)cc1 [Compound 5g, N^4–(4-Bromobenzyl)-6-bromo-9H-pyrido[2,3-b]indole-4-amine] | 448 ± 72 | 884 ± 25 | 
Cc1ccc(CNc2ccnc3[nH]c4ccc(Br)cc4c23)cc1 [Compound 5h, N^4–(4-Methylbenzyl)-6-bromo-9H-pyrido[2,3-b]indole-4-amine] | 279 ± 91 | 697 ± 15 | 
COc1cccc(CNc2ccnc3[nH]c4ccc(C#N)cc4c23)c1 [Compound 6a, 4–(3-Methoxybenzyl)amino-9H-pyrido[2,3-b]indole-6-carbonitrile] | 72 ± 17 | 288 ± 26 | affinity towards IGF-1R relative to corresponding 6-bromo compound 5a (IGF-1R [1]; fold comparison of Ki with 5a): more than thirtyfold higher
COc1ccc(CNc2ccnc3[nH]c4ccc(C#N)cc4c23)cc1 [Compound 6b, 4–(4-Methoxybenzyl)amino-9H-pyrido[2,3-b]indole-6-carbonitrile] | 158 ± 26 | 269 ± 22 | 
Cc1ccc(CNc2ccnc3[nH]c4ccc(C#N)cc4c23)cc1 [Compound 6c, 4–(4-Methylbenzyl)amino-9H-pyrido[2,3-b]indole-6-carbonitrile] | 160 ± 15 | 390 ± 16 | 
COc1cccc(CNc2ccnc3[nH]c4ccc(C(=O)O)cc4c23)c1 [Compound 7] | 140 ± 28 | 2360 ± 132 | affinity towards IGF-1R relative to corresponding 6-cyano compound 6a (IGF-1R [1]; fold comparison of Ki with 6a): almost tenfold lower
C#Cc1cccc(Nc2ncnc3cc(OCCOC)c(OCCOC)cc23)c1 [erlotinib] |  |  | activity toward IGF-1R (erlotinib) (IGF-1R [2]): no activity
